Results published in patent US9434727B2, “Substituted 4-phenylpiperidines, their preparation and use” (THE TRUSTEES OF COLUMBIA UNIVERSITY IN THE CITY OF NEW YORK, priority 2014, dated 2016).

How the values were obtained:
RBP4-TTR interaction = RBP4-TTR interaction (Homo sapiens (Human), UniProt P02753); assay: TR-FRET (HTRF) assay for retinol-induced RBP4-TTR interaction; format: biochemical; settings: in the presence of 1 μM retinol; read-out: HTRF assay for antagonists of RBP4-TTR interaction: IC50
Excerpt: TR-FRET assay for retinol-induced RBP4-TTR interaction Binding of a desired RBP4 antagonist displaces retinol and induces hindrance for RBP4-TTR interaction resulting in the decreased FRET signal (FIG. 7). Bacterially expressed MBP-RBP4 and untagged TTR were used in this assay. […] Following cell lysis, recombinant RBP4 was purified from the soluble fraction using the ACTA FPLC system (GE Healthcare) equipped with the 5-ml the MBP Trap HP column. Human untagged TTR was purchased from Calbiochem. Untagged TTR was labeled directly with Eu^3+ Cryptate-NHS using the HTRF Cryptate Labeling kit from CisBio following the manufacturer's recommendations. HTRF assay was performed in white low volume 384 well plates (Greiner-Bio) in a final assay volume of 16 μl per well. The reaction buffer contained 10 mM Tris-HCl pH 7.5, 1 mM DTT, 0.05% NP-40, 0.05% Prionex, 6% glycerol, and 400 mM KF. […] Titration of test compounds in this assay was conducted in the presence of 1 μM retinol. All reactions were assembled in the dark under dim red light and incubated overnight at +4° C. wrapped in aluminum foil. TR-FRET signal was measured in the SpectraMax M5e Multimode Plate Reader (Molecular Device). […] The TR-FRET signal was expressed as the ratio of fluorescence intensity: Flu665/Flu620×10,000.

RBP4 = RBP4 (Homo sapiens (Human), UniProt P02753); assay: Scintillation proximity (SPA) RBP4 binding assay; settings: 10 nM 3H-Retinol, 50 nM biotinylated RBP4
Protocol: Scintillation Proximity RBP4 Binding Assay
Untagged human RBP4 purified from urine of tubular proteinuria patients was purchased from Fitzgerald Industries International. It was biotinylated using the EZ-Link Sulfo-NHS-LC-Biotinylation kit from Pierce following the manufacturer's recommendations. Binding experiments were performed in 96-well plates (OptiPlate, PerkinElmer) in a final assay volume of 100 μl per well in SPA buffer (IX PBS, pH 7.4, 1 mM EDTA, 0.1% BSA, 0.5% CHAPS). The reaction mix contained 10 nM ^3H-Retinol (48.7 Ci/mmol; PerkinElmer), 0.3 mg/well Streptavidin-PVT beads, 50 nM biotinylated RBP4 and a test compound. Nonspecific binding was determined in the presence of 20 μM of unlabeled retinol. The reaction mix was assembled in the dark under dim red light. The plates were sealed with clear tape (TopSeal-A: 96-well microplate, PerkinElmer), wrapped in the aluminum foil, and allowed to equilibrate 6 hours at room temperature followed by overnight incubation at +4° C. Radiocounts were measured using a TopCount NXT counter (Packard Instrument Company).

Row | Compound | IC50 (RBP4-TTR interaction) | IC50 (RBP4)
1 | CC(=O)N1CCc2c(C(=O)N3CCC(c4cccc(F)c4C(F)(F)F)CC3)n[nH]c2C1 [Compound 63, 1-(3-(4-(3-Fluoro-2-(trifluoromethyl)phenyl)piperidine-1-carbonyl)-4,5-dihydro-1H-pyrazolo[3,4-c]pyridin-6(7H)-yl)ethanone] | 16 nM | 4.46 nM
2 | CS(=O)(=O)N1CCc2[nH]nc(C(=O)N3CCC(c4cccc(F)c4C(F)(F)F)CC3)c2C1 [Compound 64, (4-(3-Fluoro-2-(trifluoromethyl)phenyl)piperidin-1-yl)(5-(methylsulfonyl)-4,5,6,7-tetrahydro-1H-pyrazolo[4,3-c]pyridin-3-yl)methanone] | 20.6 nM | 5.36 nM
3 | N#CN1CCc2[nH]nc(C(=O)N3CCC(c4cccc(F)c4C(F)(F)F)CC3)c2C1 [Compound 70, 3-(4-(3-Fluoro-2-(trifluoromethyl)phenyl)piperidine-1-carbonyl)-6,7-dihydro-1H-pyrazolo[4,3-c]pyridine-5(4H)-carbonitrile] | 37.5 nM | –
4 | O=C(c1n[nH]c2c1CN(CC(F)(F)F)CC2)N1CCC(c2cccc(F)c2C(F)(F)F)CC1 [Compound 71, (4-(3-Fluoro-2-(trifluoromethyl)phenyl)piperidin-1-yl)(5-(2,2,2-trifluoroethyl)-4,5,6,7-tetrahydro-1H-pyrazolo[4,3-c]pyridin-3-yl)methanone] | 52.6 nM | 17.1 nM
5 | O=C(c1n[nH]c2c1CN(C1COC1)CC2)N1CCC(c2cccc(F)c2C(F)(F)F)CC1 [Compound 74] | 28.3 nM | 11.6 nM
6 | CCN1CCc2c(C(=O)N3CCC(c4cccc(F)c4C(F)(F)F)CC3)n[nH]c2C1 [Compound 75, (6-Ethyl-4,5,6,7-tetrahydro-1H-pyrazolo[3,4-c]pyridin-3-yl)(4-(3-fluoro-2-(trifluormethyl)phenyl)piperidin-1-yl)methanone] | 34 nM | 6.95 nM
7 | O=C(c1n[nH]c2c1CCN(CCC(F)(F)F)C2)N1CCC(c2cccc(F)c2C(F)(F)F)CC1 [Compound 76, (4-(3-Fluoro-2-(trifluoromethyl)phenyl)piperidin-1-yl)(6-(3,3,3-trifluoropropyl)-4,5,6,7-tetrahydro-1H-pyrazolo[3,4-c]pyridin-3-yl)methanone] | 19.7 nM | 7.4 nM
8 | N#CN1CCc2c(C(=O)N3CCC(c4cccc(F)c4C(F)(F)F)CC3)n[nH]c2C1 [Compound 78, 3-(4-(3-Fluoro-2-(trifluoromethyl)phenyl)piperidine-1-carbonyl)-4,5-dihydro-1H-pyrazolo[3,4-c]pyridine-6(7H)-carbonitrile] | – | 9.5 nM
9 | CCC(=O)N1Cc2[nH]nc(C(=O)N3CCC(c4ccc(F)c(F)c4C(F)(F)F)CC3)c2C1 [Compound 84, 1-(3-(4-(3,4-difluoro-2-(trifluoromethyl)phenyl)piperidine-1-carbonyl)pyrrolo[3,4-c]pyrazol-5(1H,4H,6H)-yl)propan-1-one] | 14.7 nM | 16.3 nM
10 | CC(C)C(=O)N1Cc2[nH]nc(C(=O)N3CCC(c4ccc(F)c(F)c4C(F)(F)F)CC3)c2C1 [Compound 85, 1-(3-(4-(3,4-difluoro-2-(trifluoromethyl)phenyl)piperidine-1-carbonyl)pyrrolo[3,4-c]pyrazol 5(1H,4H,6H)-yl)-2-methylpropan-1-one] | 22.4 nM | 17.9 nM
11 | CC(C)CC(=O)N1Cc2[nH]nc(C(=O)N3CCC(c4ccc(F)c(F)c4C(F)(F)F)CC3)c2C1 [Compound 86, 1-(3-(4-(3,4-difluoro-2-(trifluoromethyl)phenyl)piperidine-1-carbonyl)pyrrolo[3,4-c]pyrazol-5(1H, 4H, 6H)-yl)-3-methylbutan-1-one] | 27.8 nM | 19.3 nM
12 | O=C(c1n[nH]c2c1CN(C1COC1)CC2)N1CCC(c2ccc(F)c(F)c2C(F)(F)F)CC1 [Compound 89, (4-(3,4-difluoro-2-(trifluoromethyl)phenyl)piperidin-1-yl)(5-(oxetan-3-yl)-4,5,6,7-tetrahydro-1H-pyrazolo[4,3-c]pyridin-3-yl)methanone] | 33 nM | 8.84 nM
13 | CC(C)(C)CN1CCc2[nH]nc(C(=O)N3CCC(c4ccc(F)c(F)c4C(F)(F)F)CC3)c2C1 [Compound 90, (4-(3,4-difluoro-2-(trifluoromethyl)phenyl)piperidin-1-yl)(5-neopentyl-4,5,6,7-tetrahydro-1H-pyrazolo[4,3-c]pyridin-3-yl)methanone methanone] | 42.9 nM | 14.4 nM
14 | COC(=O)N1CCc2[nH]nc(C(=O)N3CCC(c4ccc(F)c(F)c4C(F)(F)F)CC3)c2C1 [Compound 91, methyl 3-(4-(3,4-difluoro-2-(trifluoromethyl)phenyl)piperidine-1-carbonyl)-6,7-dihydro-1H-pyrazolo[4,3-c]pyridine-5(4H)-carboxylate] | 57.7 nM | 7.06 nM
15 | CNC(=O)N1CCc2[nH]nc(C(=O)N3CCC(c4ccc(F)c(F)c4C(F)(F)F)CC3)c2C1 [Compound 92, 3-(4-(3,4-difluoro-2-(trifluoromethyl)phenyl)piperidine-1-carbonyl)-N-methyl-6,7-dihydro-1H-pyrazolo[4,3-c]pyridine-5(4H)-carboxamide] | 76.6 nM | 10.2 nM
16 | O=C(c1n[nH]c2c1CN(CCC(F)(F)F)CC2)N1CCC(c2ccc(F)c(F)c2C(F)(F)F)CC1 [Compound 93, (4-(3,4-difluoro-2-(trifluoromethyl)phenyl)piperidin-1-yl)(5-(3,3,3-trifluoropropyl)-4,5,6,7-tetrahydro-1H-pyrazolo[4,3-c]pyridin-3-yl)methanone] | 33.6 nM | 8 nM
17 | COCCN1CCc2[nH]nc(C(=O)N3CCC(c4ccc(F)c(F)c4C(F)(F)F)CC3)c2C1 [Compound 94, (4-(3,4-difluoro-2-(trifluoromethyl)phenyl)piperidin-1-yl)(5-(2-methoxyethyl)-4,5,6,7-tetrahydro-1H-pyrazolo[4,3-c]pyridin-3-yl)methanone] | 49.9 nM | 6.96 nM
18 | N#CN1CCc2[nH]nc(C(=O)N3CCC(c4ccc(F)c(F)c4C(F)(F)F)CC3)c2C1 [Compound 95, 3-(4-(3,4-difluoro-2-(trifluoromethyl)phenyl)piperidine-1-carbonyl)-6,7-dihydro-1H-pyrazolo[4,3-c]pyridine-5(4H)-carbonitrile] | 27.8 nM | 7.78 nM
19 | CCN1Cc2[nH]nc(C(=O)N3CCC(c4ccc(F)c(F)c4C(F)(F)F)CC3)c2C1 [Compound 96, (4-(3,4-difluoro-2(trifluoromethyl)phenyl)piperidin-1-yl)(5-ethyl-1,4,5,6-tetrahydropyrrolo[3,4-c]pyrazol-3-yl)methanone] | 26.5 nM | 12.7 nM
20 | O=C(c1n[nH]c2c1CN(C1COC1)C2)N1CCC(c2ccc(F)c(F)c2C(F)(F)F)CC1 [Compound 98, (4-(3,4-difluoro-2-(trifluoromethyl)phenyl)piperidin-1-yl)(5-(oxetan-3-yl)-1,4,5,6-tetrahydropyrrolo[3,4-c]pyrazol-3-yl) methanone] | 74.1 nM | 11.8 nM
21 | CNC(=O)N1Cc2[nH]nc(C(=O)N3CCC(c4ccc(F)c(F)c4C(F)(F)F)CC3)c2C1 [Compound 100, 3-(4-(3,4-difluoro-2-(trifluoromethyl)phenyl)piperidine-1-carbonyl)-N-methyl-4,6-dihydropyrrolo[3,4-c]pyrazole-5(1H)-carboxamide] | 30.3 nM | 19.6 nM
22 | COC(=O)N1Cc2[nH]nc(C(=O)N3CCC(c4ccc(F)c(F)c4C(F)(F)F)CC3)c2C1 [Compound 101, methyl 3-(4-(3,4-difluoro-2-(trifluoromethyl)phenyl)piperidine-1-carbonyl)-4,6-dihydropyrrolo[3,4-c]pyrazole-5(1H)-carboxylate] | 14.1 nM | 7.44 nM
23 | N#CN1CCc2c(C(=O)N3CCC(c4ccc(F)c(F)c4C(F)(F)F)CC3)n[nH]c2C1 [Compound 120, 3-(4-(3,4-Difluoro-2-(trifluoromethyl)phenyl)piperidine-1-carbonyl)-1,4,5,7-tetrahydro-6H-pyrazolo[3,4-c]pyridine-6-carbonitrile] | – | 3.45 nM
24 | O=C(c1n[nH]c2c1CN(C(=O)N1CCCCC1)C2)N1CCC(c2ccc(F)c(F)c2C(F)(F)F)CC1 [Compound 128, (4-(3,4-Difluoro-2-(trifluoromethyl)phenyl)piperidin-1-yl)(5-(piperidine-1-carbonyl)-1,4,5,6 tetrahydropyrrolo[3,4-c]pyrazol-3-yl)methanone] | 32.4 nM | –
